Source: PubChem BioAssay AID266 (DTP/NCI, 2004)
Several values for one entry are separate records, joined by “and”; a condition that tells them apart may be missing. Equal values may be shown once. Inconclusive results are not listed.

Test system: Nude mice, LX-1 lung xenograft intrarenal, tumor weight T/C
Assay: NCI In Vivo Anticancer Drug Screen. Data for tumor model Human Lung LX-1 Xenograft (intrarenal inoculation) in NU/NU BALB/C (nude) mice
Conditions: endpoint: mean tumor weight change, higher = larger tumour
Procedure: The antitumor activity of compounds was measured in mice bearing transplantable tumors. Survival or tumor size were measured and the results are expressed as the measurement made in the treated group (T) divided by the measurement made in the vehicle treated control group (C). The tumor model used in this assay is Human Lung LX-1 Xenograft (intrarenal inoculation) in NU/NU BALB/C (nude) mice

[1] = dose: 0.25 mg/kg/injection, schedule: Q01DX010 (sc), vehicle: saline
[2] = dose: 0.5 mg/kg/injection, schedule: Q01DX010 (sc), vehicle: saline
[3] = dose: 300.0 mg/kg/injection, schedule: Q04DX003 (sc), vehicle: saline with Tween-80
[4] = dose: 600.0 mg/kg/injection, schedule: Q04DX003 (sc), vehicle: saline with Tween-80
[5] = dose: 4.0 mg/kg/injection, schedule: Q01DX010 (sc), vehicle: saline
[6] = dose: 150.0 mg/kg/injection, schedule: Q04DX003 (ip), vehicle: DMSO
[7] = dose: 300.0 mg/kg/injection, schedule: Q04DX003 (ip), vehicle: DMSO
[8] = dose: 600.0 mg/kg/injection, schedule: Q04DX003 (ip), vehicle: DMSO
[9] = dose: 1.0 mg/kg/injection, schedule: Q01DX010 (sc), vehicle: saline
[10] = dose: 2.0 mg/kg/injection, schedule: Q01DX010 (sc), vehicle: saline

## O=P1(N(CCCl)CCCl)NCCCO1 (stereo unspecified)
dose: 25.0 mg/kg/injection, schedule: Q04DX003 (ip), vehicle: saline
  T/C: 101 % of control
dose: 50.0 mg/kg/injection, schedule: Q04DX003 (ip), vehicle: saline
  T/C: 92 % of control
dose: 100.0 mg/kg/injection, schedule: Q04DX003 (ip), vehicle: saline
  T/C: 77 % of control
dose: 200.0 mg/kg/injection, schedule: Q04DX003 (ip), vehicle: saline
  T/C: 50 % of control

## CC[C@]1(O)C[C@H]2CN(CCc3c([nH]c4ccccc34)[C@@](C(=O)OC)(c3cc4c(cc3OC)N(C=O)[C@H]3[C@@](O)(C(=O)OC)[C@H](OC(C)=O)[C@]5(CC)C=CCN6CC[C@]43[C@@H]65)C2)C1
dose: 0.13 mg/kg/injection, schedule: Q01DX010 (sc), vehicle: saline
  T/C: 69 % of control
[1]
  T/C: 20 % of control
[2]
  T/C: 1 % of control

## CCOC1=Cc2c(oc3c(C(C)(C)C)cc(OCC)cc23)OC(C(C)(C)C)=C1
dose: 150.0 mg/kg/injection, schedule: Q04DX003 (sc), vehicle: saline with Tween-80
  T/C: 92 % of control
[3]
  T/C: 101 % of control
[4]
  T/C: 102 % of control

## NC(N)=NOCC[C@@H](N)C(=O)O
dose: 300.0 mg/kg/injection, schedule: Q04DX003 (sc), vehicle: saline
  T/C: 91 % of control
dose: 600.0 mg/kg/injection, schedule: Q04DX003 (sc), vehicle: saline
  T/C: 91 % of control
dose: 1200.0 mg/kg/injection, schedule: Q04DX003 (sc), vehicle: saline
  T/C: 82 % of control
dose: 2400.0 mg/kg/injection, schedule: Q04DX003 (sc), vehicle: saline
  T/C: 59 % of control

## CC(O)CCC(=O)c1ccoc1 (stereo unspecified)
dose: 15.0 mg/kg/injection, schedule: Q01DX010 (ip), vehicle: saline
  T/C: 75 % of control
dose: 30.0 mg/kg/injection, schedule: Q01DX010 (ip), vehicle: saline
  T/C: 121 % of control

## O=C1N[C@H]2[C@H](CS[C@H]2CCCCC(=O)N(CCP(c2ccccc2)c2ccccc2)CCP(c2ccccc2)c2ccccc2)N1
dose: 300.0 mg/kg/injection, schedule: Q04DX003 (sc), vehicle: Klucel (hydroxypropylcellulose) (HPC)
  T/C: 84 % of control
dose: 600.0 mg/kg/injection, schedule: Q04DX003 (sc), vehicle: Klucel (hydroxypropylcellulose) (HPC)
  T/C: 64 % of control
dose: 1200.0 mg/kg/injection, schedule: Q04DX003 (sc), vehicle: Klucel (hydroxypropylcellulose) (HPC)
  T/C: 87 % of control
dose: 2400.0 mg/kg/injection, schedule: Q04DX003 (sc), vehicle: Klucel (hydroxypropylcellulose) (HPC)
  T/C: 71 % of control

## C1CN1c1nc(N2CC2)nc(N2CC2)n1
[1]
  T/C: 34 % of control
[2]
  T/C: 45 % of control

## NC(CCl)=NCC12CC3CC(CC(C3)C1)C2
dose: 18.75 mg/kg/injection, schedule: Q04DX003 (sc), vehicle: Klucel (hydroxypropylcellulose) (HPC)
  T/C: 157 % of control
dose: 75.0 mg/kg/injection, schedule: Q04DX003 (sc), vehicle: Klucel (hydroxypropylcellulose) (HPC)
  T/C: 110 % of control

## CS(C)=O
dose: 750.0 mg/kg/injection, schedule: Q01DX010 (sc), vehicle: saline
  T/C: 88 % of control
dose: 6000.0 mg/kg/injection, schedule: Q01DX010 (sc), vehicle: saline
  T/C: 67 % of control

## S=P(N1CC1)(N1CC1)N1CC1
[5]
  T/C: 77 % of control

## CCCCCCCCCCCCCCCCCCOCC(COP(=O)([O-])OCC[N+](C)(C)C)OC (stereo unspecified)
dose: 37.5 mg/kg/injection, schedule: Q04DX003 (sc), vehicle: saline
  T/C: 68 % of control

## CC1(CO)C(O)CCC2(C)C1CCC1CC3CC12CCC3(O)CO (stereo unspecified)
dose: 50.0 mg/kg/injection, schedule: Q01DX010 (sc), vehicle: saline with Tween-80
  T/C: 86 % of control
dose: 400.0 mg/kg/injection, schedule: Q01DX010 (sc), vehicle: saline with Tween-80
  T/C: 34 % of control

## BrCCC1(CCBr)CCCCC1
dose: 300.0 mg/kg/injection, schedule: Q04DX003 (sc), vehicle: water
  T/C: 104 % of control
dose: 600.0 mg/kg/injection, schedule: Q04DX003 (sc), vehicle: water
  T/C: 89 % of control
dose: 1200.0 mg/kg/injection, schedule: Q04DX003 (sc), vehicle: water
  T/C: 85 % of control

## CC(=O)Oc1[nH]c(=O)c2cccc3c2c1CCC3
[3]
  T/C: 62 % of control
[4]
  T/C: 68 % of control
dose: 1200.0 mg/kg/injection, schedule: Q04DX003 (sc), vehicle: saline with Tween-80
  T/C: 90 % of control
dose: 2400.0 mg/kg/injection, schedule: Q04DX003 (sc), vehicle: saline with Tween-80
  T/C: 83 % of control

## O=C(O)[C@H](Cc1ccccc1)N1C(=O)c2ccccc2C1=O
[6]
  T/C: 98 % of control
[7]
  T/C: 58 % of control
[8]
  T/C: 53 % of control

## CCCCCc1cc(O)c2c(c1)OC(C)(C)[C@@H]1CCC(C)=C[C@@H]21
dose: 150.0 mg/kg/injection, schedule: Q04DX003 (sc), vehicle: other
  T/C: 94 % of control
dose: 300.0 mg/kg/injection, schedule: Q04DX003 (sc), vehicle: other
  T/C: 91 % of control
dose: 600.0 mg/kg/injection, schedule: Q04DX003 (sc), vehicle: other
  T/C: 76 % of control
dose: 1200.0 mg/kg/injection, schedule: Q04DX003 (sc), vehicle: other
  T/C: 90 % of control

## O=NN(CCCl)C(=O)NC1CCC(=O)NC1=O (stereo unspecified)
dose: 1.56 mg/kg/injection, schedule: Q01DX010 (sc), vehicle: saline with Tween-80
  T/C: 25 % of control
dose: 3.13 mg/kg/injection, schedule: Q01DX010 (sc), vehicle: saline with Tween-80
  T/C: 12 % of control
dose: 5.2 mg/kg/injection, schedule: Q04DX003 (sc), vehicle: saline with Tween-80
  T/C: 58 % of control
dose: 6.25 mg/kg/injection, schedule: Q01DX010 (sc), vehicle: saline with Tween-80
  T/C: 1 % of control
dose: 10.4 mg/kg/injection, schedule: Q04DX003 (sc), vehicle: saline with Tween-80
  T/C: 3 % of control
dose: 12.5 mg/kg/injection, schedule: Q01DX010 (sc), vehicle: saline with Tween-80
  T/C: -100 % of control
dose: 20.8 mg/kg/injection, schedule: Q04DX003 (sc), vehicle: saline with Tween-80
  T/C: -47 % of control

## Oc1c(Cl)cc(Cl)cc1C=NCCSc1ccc(Cl)cc1
dose: 150.0 mg/kg/injection, schedule: Q04DX003 (ip), vehicle: Klucel (hydroxypropylcellulose) (HPC)
  T/C: 71 % of control
dose: 1200.0 mg/kg/injection, schedule: Q04DX003 (ip), vehicle: Klucel (hydroxypropylcellulose) (HPC)
  T/C: 70 % of control

## Nc1ncn(C2OC(CO)C(O)C2O)c(=O)n1 (stereo unspecified)
dose: 5.0 mg/kg/injection, schedule: Q04DX003 (sc), vehicle: saline
  T/C: 47 % of control
dose: 10.0 mg/kg/injection, schedule: Q04DX003 (sc), vehicle: saline
  T/C: 39 % of control
dose: 100.0 mg/kg/injection, schedule: Q04DX003 (sc), vehicle: saline
  T/C: 34 % of control
dose: 200.0 mg/kg/injection, schedule: Q04DX003 (sc), vehicle: saline
  T/C: 18 % of control and 28 % of control
dose: 400.0 mg/kg/injection, schedule: Q04DX003 (sc), vehicle: saline
  T/C: 15 % of control and 32 % of control
dose: 1600.0 mg/kg/injection, schedule: Q04DX003 (sc), vehicle: saline
  T/C: -72 % of control

## CN(C)N=Nc1cccc(C(N)=O)c1
dose: 25.0 mg/kg/injection, schedule: Q04DX003 (sc), vehicle: Klucel (hydroxypropylcellulose) (HPC)
  T/C: 20 % of control
dose: 200.0 mg/kg/injection, schedule: Q04DX003 (sc), vehicle: Klucel (hydroxypropylcellulose) (HPC)
  T/C: -93 % of control

## N[C@@H](Cc1ccc(N(CCCl)CCCl)cc1)C(=O)O
[9]
  T/C: 94 % of control
[10]
  T/C: 47 % of control
[5]
  T/C: 13 % of control
dose: 8.0 mg/kg/injection, schedule: Q01DX010 (sc), vehicle: saline
  T/C: -19 % of control

## O=NN(CCCl)C(=O)NCCCl
dose: 4.0 mg/kg/injection, schedule: Q01DX010 (ip), vehicle: saline
  T/C: 32 % of control and 48 % of control
dose: 13.33 mg/kg/injection, schedule: Q04DX003 (ip), vehicle: saline
  T/C: 9 % of control and 10 % of control
dose: 16.0 mg/kg/injection, schedule: Q01DX010 (ip), vehicle: saline
  T/C: -69 % of control and -87 % of control
dose: 26.66 mg/kg/injection, schedule: Q04DX003 (ip), vehicle: saline
  T/C: -21 % of control

## N#Cc1cn(C2OC(CO)C(O)C2O)c2ncnc(N)c12 (stereo unspecified)
[9]
  T/C: 26 % of control
[10]
  T/C: 77 % of control

## Nc1ncnc2c(C3OC(CO)C(O)C3O)[nH]nc12 (stereo unspecified)
dose: 75.0 mg/kg/injection, schedule: Q04DX003 (sc), vehicle: suspension in saline
  T/C: 83 % of control
dose: 150.0 mg/kg/injection, schedule: Q04DX003 (sc), vehicle: suspension in saline
  T/C: 37 % of control

## Nc1ccc(S(=O)(=O)Nc2cnc3c(Cl)cccc3n2)cc1
[6]
  T/C: 82 % of control
[7]
  T/C: 89 % of control
[8]
  T/C: 45 % of control
